Measurements as given in ChEMBL document CHEMBL5303573, “Mapping human microbiome drug metabolism by gut bacteria and their genes” (Nature, 2019).

Legend:
[1] = The drug is tested on Collinsella aerofaciens strain: ATCC25986 for biotransformation. The drug concentrations were measured before and after a 12-h incubation by liquid-chromatography-coupled mass spectrometry (LC–MS); conditions: 2 µM
[2] = The drug is tested on Bacteroides caccae strain: ATCC43185 for biotransformation. The drug concentrations were measured before and after a 12-h incubation by liquid-chromatography-coupled mass spectrometry (LC–MS); conditions: 2 µM
[3] = The drug is tested on Bacteroides finegoldii strain: DSM17565 for biotransformation. The drug concentrations were measured before and after a 12-h incubation by liquid-chromatography-coupled mass spectrometry (LC–MS); conditions: 2 µM
[4] = The drug is tested on Bacteroides ovatus strain: ATCC8483 for biotransformation. The drug concentrations were measured before and after a 12-h incubation by liquid-chromatography-coupled mass spectrometry (LC–MS); conditions: 2 µM
[5] = The drug is tested on Bacteroides sp. WH2 strain: WH2 for biotransformation. The drug concentrations were measured before and after a 12-h incubation by liquid-chromatography-coupled mass spectrometry (LC–MS); conditions: bacteroides sp. wh2, 12 h, 2 µM
[6] = The drug is tested on Odoribacter splanchnicus strain: fecal isolate for biotransformation. The drug concentrations were measured before and after a 12-h incubation by liquid-chromatography-coupled mass spectrometry (LC–MS); conditions: 2 µM
[7] = The drug is tested on Blautia hansenii strain: DSM20583 for biotransformation. The drug concentrations were measured before and after a 12-h incubation by liquid-chromatography-coupled mass spectrometry (LC–MS); conditions: 2 µM
[8] = The drug is tested on Clostridium scindens strain: ATCC35704 for biotransformation. The drug concentrations were measured before and after a 12-h incubation by liquid-chromatography-coupled mass spectrometry (LC–MS); conditions: 2 µM
[9] = The drug is tested on Dorea formicigenerans strain: ATCC27755 for biotransformation. The drug concentrations were measured before and after a 12-h incubation by liquid-chromatography-coupled mass spectrometry (LC–MS); conditions: 2 µM
[10] = The drug is tested on Enterococcus faecalis strain: V583 for biotransformation. The drug concentrations were measured before and after a 12-h incubation by liquid-chromatography-coupled mass spectrometry (LC–MS); conditions: 2 µM
[11] = The drug is tested on Ruminococcus gnavus strain: ATCC29149 for biotransformation. The drug concentrations were measured before and after a 12-h incubation by liquid-chromatography-coupled mass spectrometry (LC–MS); conditions: mediterraneibacter gnavus, 2 µM
[12] = The drug is tested on Edwardsiella tarda strain: ATCC23685 for biotransformation. The drug concentrations were measured before and after a 12-h incubation by liquid-chromatography-coupled mass spectrometry (LC–MS); conditions: 2 µM
[13] = bacteroides fragilis, 12 h, 2 µM
Description: The drug is tested on Bacteroides fragilis strain: DS-208 for biotransformation. The drug concentrations were measured before and after a 12-h incubation by liquid-chromatography-coupled mass spectrometry (LC–MS)

[14] = bacteroides stercoris, 12 h, 2 µM
Description: The drug is tested on Bacteroides stercoris strain: ATCC43183 for biotransformation. The drug concentrations were measured before and after a 12-h incubation by liquid-chromatography-coupled mass spectrometry (LC–MS)

[15] = bacteroides thetaiotaomicron, 12 h, 2 µM
Description: The drug is tested on Bacteroides thetaiotaomicron strain: VPI-5482 for biotransformation. The drug concentrations were measured before and after a 12-h incubation by liquid-chromatography-coupled mass spectrometry (LC–MS)

[16] = limosilactobacillus reuteri cf48-3a, 12 h, 2 µM
Description: The drug is tested on Lactobacillus reuteri CF48-3A strain: BEI HM-102 for biotransformation. The drug concentrations were measured before and after a 12-h incubation by liquid-chromatography-coupled mass spectrometry (LC–MS)

[17] = The drug is tested on Bacteroides vulgatus strain: ATCC8482 for biotransformation. The drug concentrations were measured before and after a 12-h incubation by liquid-chromatography-coupled mass spectrometry (LC–MS); conditions: phocaeicola vulgatus, 2 µM
[18] = bacteroides thetaiotaomicron, 12 h, 2 µM; remark: listed apart in the source
Description: The drug is tested on Bacteroides thetaiotaomicron strain: 7330 for biotransformation. The drug concentrations were measured before and after a 12-h incubation by liquid-chromatography-coupled mass spectrometry (LC–MS)

[19] = The drug is tested on Bifidobacterium breve strain: DSM20213 for biotransformation. The drug concentrations were measured before and after a 12-h incubation by liquid-chromatography-coupled mass spectrometry (LC–MS); conditions: 2 µM

Compound | Bacterial Biotransformation [1] | Bacterial Biotransformation [2] | Bacterial Biotransformation [3] | Bacterial Biotransformation [4] | Bacterial Biotransformation [5] | Bacterial Biotransformation [6] | Bacterial Biotransformation [7] | Bacterial Biotransformation [8] | Bacterial Biotransformation [9] | Bacterial Biotransformation [10] | Bacterial Biotransformation [11] | Bacterial Biotransformation [12] | Bacterial Biotransformation [13] | Bacterial Biotransformation [14] | Bacterial Biotransformation [15] | Bacterial Biotransformation [16] | Bacterial Biotransformation [17] | Bacterial Biotransformation [18] | Bacterial Biotransformation [19]
COc1cc2nc(N(C)CCCNC(=O)C3CCCO3)nc(N)c2cc1OC (stereo not given) [ALFUZOSIN] | Compound NOT metabolized | Compound NOT metabolized | Compound NOT metabolized | Compound NOT metabolized | Compound NOT metabolized | Compound NOT metabolized | Compound NOT metabolized | Compound NOT metabolized | Compound NOT metabolized | Compound NOT metabolized | Compound NOT metabolized | Compound NOT metabolized | Compound NOT metabolized | Compound NOT metabolized | Compound NOT metabolized | Compound NOT metabolized | – | – | –
O=P(O)(O)O.c1ccc(CN(CC2=NCCN2)c2ccccc2)cc1 [ANTAZOLINE PHOSPHATE] | Compound NOT metabolized | Compound NOT metabolized | Compound NOT metabolized | Compound NOT metabolized | Compound NOT metabolized | – | Compound NOT metabolized | Compound NOT metabolized | Compound NOT metabolized | Compound NOT metabolized | Compound NOT metabolized | Compound NOT metabolized | Compound NOT metabolized | Compound NOT metabolized | Compound NOT metabolized | Compound NOT metabolized | Compound NOT metabolized | – | –
C#C[C@]1(OC(C)=O)CC[C@H]2[C@@H]3CCC4=C[C@@H](OC(C)=O)CC[C@@H]4[C@H]3CC[C@@]21C [ETHYNODIOL DIACETATE] | Compound NOT metabolized | Compound NOT metabolized | Compound NOT metabolized | Compound NOT metabolized | Compound NOT metabolized | Compound NOT metabolized | Compound NOT metabolized | Compound NOT metabolized | Compound NOT metabolized | Compound NOT metabolized | – | Compound NOT metabolized | Compound NOT metabolized | Compound NOT metabolized | Compound NOT metabolized | Compound NOT metabolized | Compound NOT metabolized | Compound NOT metabolized | –
Cc1nc(-c2ccc(OCC(C)C)c(C#N)c2)sc1C(=O)O [FEBUXOSTAT] | Compound NOT metabolized | – | Compound NOT metabolized | Compound NOT metabolized | Compound NOT metabolized | Compound metabolized | Compound NOT metabolized | Compound NOT metabolized | Compound NOT metabolized | Compound NOT metabolized | Compound NOT metabolized | Compound NOT metabolized | Compound NOT metabolized | Compound NOT metabolized | Compound NOT metabolized | Compound NOT metabolized | Compound metabolized | Compound NOT metabolized | –
COC1=CC(=O)C[C@@H](C)[C@]12Oc1c(Cl)c(OC)cc(OC)c1C2=O [GRISEOFULVIN] | Compound NOT metabolized | Compound NOT metabolized | Compound NOT metabolized | – | Compound NOT metabolized | – | Compound metabolized | Compound NOT metabolized | Compound NOT metabolized | Compound NOT metabolized | Compound metabolized | Compound NOT metabolized | Compound metabolized | – | Compound metabolized | Compound NOT metabolized | Compound metabolized | – | –
CC(C)(C)N.CCC[C@H](N[C@@H](C)C(=O)N1[C@H](C(=O)O)C[C@@H]2CCCC[C@@H]21)C(=O)OCC [PERINDOPRIL ERBUMINE] | Compound NOT metabolized | Compound NOT metabolized | Compound NOT metabolized | Compound NOT metabolized | Compound NOT metabolized | Compound NOT metabolized | Compound NOT metabolized | Compound NOT metabolized | Compound NOT metabolized | Compound NOT metabolized | Compound NOT metabolized | Compound NOT metabolized | – | – | Compound NOT metabolized | Compound NOT metabolized | Compound NOT metabolized | – | Compound NOT metabolized
CN(C)CCc1c[nH]c2ccc(Cn3cncn3)cc12.O=C(O)c1ccccc1 [RIZATRIPTAN BENZOATE] | Compound NOT metabolized | Compound NOT metabolized | Compound NOT metabolized | – | Compound NOT metabolized | – | Compound NOT metabolized | Compound NOT metabolized | Compound NOT metabolized | Compound NOT metabolized | – | Compound NOT metabolized | – | – | – | – | Compound NOT metabolized | – | Compound NOT metabolized
CC(C)c1nc(N(C)S(C)(=O)=O)nc(-c2ccc(F)cc2)c1/C=C/[C@@H](O)C[C@@H](O)CC(=O)[O-].CC(C)c1nc(N(C)S(C)(=O)=O)nc(-c2ccc(F)cc2)c1/C=C/[C@@H](O)C[C@@H](O)CC(=O)[O-].[Ca+2] [ROSUVASTATIN CALCIUM] | Compound NOT metabolized | – | Compound NOT metabolized | – | Compound NOT metabolized | – | Compound NOT metabolized | Compound NOT metabolized | Compound NOT metabolized | Compound NOT metabolized | Compound NOT metabolized | Compound NOT metabolized | Compound NOT metabolized | Compound NOT metabolized | – | Compound NOT metabolized | Compound NOT metabolized | Compound NOT metabolized | Compound NOT metabolized
O=C(CCCN1CCC2(CC1)C(=O)NCN2c1ccccc1)c1ccc(F)cc1 [SPIPERONE] | Compound NOT metabolized | Compound NOT metabolized | Compound NOT metabolized | Compound NOT metabolized | Compound NOT metabolized | – | Compound NOT metabolized | Compound NOT metabolized | Compound NOT metabolized | Compound NOT metabolized | Compound NOT metabolized | Compound NOT metabolized | Compound NOT metabolized | Compound NOT metabolized | Compound NOT metabolized | Compound NOT metabolized | – | – | Compound NOT metabolized
CCN(C(C)=O)c1cccc(-c2ccnc3c(C#N)cnn23)c1 [ZALEPLON] | Compound NOT metabolized | – | – | Compound NOT metabolized | – | Compound NOT metabolized | Compound metabolized | Compound NOT metabolized | Compound NOT metabolized | Compound NOT metabolized | Compound NOT metabolized | – | Compound NOT metabolized | Compound NOT metabolized | – | – | Compound metabolized | – | Compound NOT metabolized
